Among the test systems are NCI/ADR-RES ovarian; MOLT-4 leukemia; A498 renal; DU-145 prostate; U251 CNS; HCT-15 colon; 786-0 renal; OVCAR-3 ovarian; SF-295 CNS; MCF7 breast.
Experiment in all cases: DTP human tumour cell line panel, 48 h

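48-hour exposure; five concentrations; linearly interpolated endpoints. GI50 is the concentration that inhibits growth by half. The concentration for full growth arrest is given as TGI.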

Broadly, the GI50 is the concentration that inhibits growth by half. The term TGI denotes the concentration giving total growth inhibition. Read a high TGI as less potent growth arrest. Regarding `COc1cc(Cl)cc(-c2nn(-c3cccc(NC(=O)Nc4ccc(Cl)c(Cl)c4)c3)cc2-c2ccncc2)c1`, the GI50 was 2.34 µM with NCI/ADR-RES ovarian; 1.69 µM with MOLT-4 leukemia; 2.52 µM in the test on A498 renal; 3.85 µM in the test on DU-145 prostate; 1.7 µM in the test on U251 CNS; 2.51 µM with HCT-15 colon. The GI50 with 786-0 renal was 2.31 µM; in the test with OVCAR-3 ovarian it was 1.56 µM; with SF-295 CNS, 1.77 µM; in the test on MCF7 breast, 2.56 µM. Moreover, the TGI with NCI/ADR-RES ovarian was 24.9 µM; in the test with MOLT-4 leukemia it was 6.13 µM; in the test with A498 renal, 90.9 µM; in the test on DU-145 prostate it was over 100 µM; in the test with U251 CNS, 6.03 µM; in the test on HCT-15 colon, 31.5 µM. The TGI came to 7.84 µM in the test on 786-0 renal, 29.4 µM with OVCAR-3 ovarian, 7.21 µM in the test with SF-295 CNS and 13.2 µM in the test with MCF7 breast.

With `COC(=O)C(C(=O)OC)C(Br)C(Br)C(Br)c1ccccc1` (stereo not given), the GI50 in the test on NCI/ADR-RES ovarian was 17.8 µM; in the test on MOLT-4 leukemia, 4.11 µM; in the test on A498 renal it was 15.5 µM; in the test on DU-145 prostate, 10.6 µM; in the test on U251 CNS, 14.8 µM; in the test on HCT-15 colon it was 2.83 µM. The GI50 was 11.9 µM with 786-0 renal, 2.98 µM with OVCAR-3 ovarian, 18.9 µM in the test on SF-295 CNS and 2.43 µM with MCF7 breast. Moreover, the TGI came to 42.4 µM in the test with NCI/ADR-RES ovarian; 16.8 µM in the test on MOLT-4 leukemia; 33.1 µM in the test on A498 renal; 23 µM in the test with DU-145 prostate; 28 µM in the test with U251 CNS; 11 µM with HCT-15 colon. Also, the TGI in the test with 786-0 renal was 25.3 µM; with OVCAR-3 ovarian, 7.63 µM; with SF-295 CNS, 37.3 µM; in the test on MCF7 breast, 9.68 µM.

As for `NC1(Cc2ccc(Cl)cc2)CCN(c2ncnc3[nH]ccc23)CC1`, the GI50 with NCI/ADR-RES ovarian was 9.97 µM; with MOLT-4 leukemia it was 1.91 µM; in the test on A498 renal, 0.546 µM; in the test with DU-145 prostate, 9.37 µM; with U251 CNS, 3.73 µM; in the test on HCT-15 colon, 5.64 µM. The GI50 in the test with 786-0 renal is 2.68 µM; in the test with OVCAR-3 ovarian, 11.7 µM; in the test on SF-295 CNS, 1.48 µM; in the test on MCF7 breast, 4.1 µM. For the same compound, the TGI in the test with NCI/ADR-RES ovarian stood at 26.5 µM; in the test on MOLT-4 leukemia, 17.3 µM; in the test on A498 renal it was 4.58 µM; with DU-145 prostate it was 25.1 µM; in the test on U251 CNS, 17.5 µM; with HCT-15 colon it was 23.9 µM. The TGI with 786-0 renal was found to be 17 µM; in the test with OVCAR-3 ovarian, 25 µM; with SF-295 CNS it was 13.5 µM; in the test on MCF7 breast, 17.6 µM.

As to `Cc1[nH]c2cc(F)ccc2c1-c1nc2c3cccnc3c3ncccc3c2[nH]1`, the GI50 in the test with NCI/ADR-RES ovarian is 0.55 µM; with MOLT-4 leukemia, 0.17 µM; in the test with A498 renal, 0.263 µM; with DU-145 prostate, 0.191 µM; in the test with U251 CNS, 0.121 µM; in the test with HCT-15 colon it was 0.359 µM. Further, the GI50 in the test on 786-0 renal was 0.243 µM; in the test with OVCAR-3 ovarian it was 0.209 µM; in the test with SF-295 CNS it was 0.253 µM; with MCF7 breast it was 0.319 µM. Besides, the TGI with NCI/ADR-RES ovarian stood at 5.37 µM; in the test on MOLT-4 leukemia, 0.642 µM; with A498 renal it was 1.06 µM; with DU-145 prostate, 1.8 µM; with U251 CNS, 1.22 µM; with HCT-15 colon, 18.8 µM. The TGI in the test with 786-0 renal came out at 0.973 µM; in the test with OVCAR-3 ovarian, 1.56 µM; in the test on SF-295 CNS, 0.818 µM; in the test on MCF7 breast, 1.65 µM.

Regarding `NC(CSSCC(N)C(=O)O)C(=O)O` (stereo not given), the GI50 with NCI/ADR-RES ovarian, in the test on MOLT-4 leukemia, in the test with A498 renal, with DU-145 prostate, in the test on U251 CNS and with HCT-15 colon was over 100 µM throughout. Moreover, the GI50 in the test with 786-0 renal, with OVCAR-3 ovarian, in the test on SF-295 CNS and in the test with MCF7 breast was over 100 µM throughout. For the same compound, the TGI in the test with NCI/ADR-RES ovarian, in the test with MOLT-4 leukemia, in the test on A498 renal, with DU-145 prostate, with U251 CNS and in the test on HCT-15 colon was over 100 µM each time. Besides, the concentration for total growth inhibition (TGI) in the test with 786-0 renal, in the test with OVCAR-3 ovarian, in the test on SF-295 CNS and with MCF7 breast was over 100 µM throughout.

For the origin of these results see PubChem BioAssay (NCI).
